# Laboratory results taken from patent US12410164B2, “Heterocyclic compounds and medical use thereof” (FONDAZIONE TELETHON, priority 2018, dated 2025).
# Biological target: F508del-CFTR (Homo sapiens, UniProt P13569, DEL508-508)
# Test: HS-YFP kinetic fluorescence (iodide quenching rate) assay in CFBE41o− cells
# Format: cell-based
# Parameters: expressed in transfected cells; host or cells: CFBE41o- cells with expression of F508del-CFTR and HS-YFP (generated as in Sondo et al. 2011)
# Settings: Table 1; compound at 10 μM plus VX-809; (QRTOT − QRVX)/QRVX, HS-YFP assay
# Description: CFBE41o- cells, with expression of F508del-CFTR and halogen-sensitive fluorescent protein, were generated as previously described (Sondo E, et al. Am J Physiol. 2011, 301, […]-[…]). For the test, the cells were seeded in 96-well microplates using a culture medium consisting of DMEM and Ham's F12 (1:1) supplemented with 10% foetal bovine serum. After 24 hours from seeding, the cells were treated for another 24 hours with the test compounds dissolved in the culture medium at the desired concentrations. As a negative control, the solvent of the compounds (dimethyl sulfoxide, DMSO) dissolved in the medium with the same dilution ratio (final percentage of DMSO:0.1-0.2%) was used. As a positive control, the corrector VX-809 (Selleck Chemicals, […]) was used at a concentration of 1 μM. After treatment, the medium with the compounds was removed and the cells were stimulated with forskolin (Sigma-Aldrich, F6886) 20 μM plus genistein (Sigma-Aldrich, G6649) 50 μM (in 60 μl of PBS saline) to maximally activate the CFTR channels present in the membrane. In a microplate reader (FLUOstar-Omega, BMG) the fluorescence of the cells in each well was read for 14 seconds, with an injection of 165 μl of a iodide-enriched saline (modified PBS where NaCl, 137 mM, has been replaced with the same concentration of NaI). The iodide transport activity in each well was evaluated by subtraction of the background fluorescence (measured in a well without cells), subsequent normalization with respect to the initial fluorescence and finally by interpolation of the fluorescence quenching phase with an exponential function that allows the derivation of the maximum slope (quenching rate, QR). The activity of the synthesized compounds was initially evaluated on the CFBE41o- cell line with expression of the mutated F508del-CFTR protein described above (Sondo E, et al. Am J Physiol. 2011, 301, […]-[…]). For this purpose, a functional assay based on the fluorescent YFP protein sensitive to halides, HS-YFP, was used (Galietta L J, et al. J Biol Chem. 2001, 276, 19723-19728). The fluorescence of the HS-YFP protein is turned off by iodide. Therefore, if exposed to a solution containing iodide, cells with HS-YFP expression show a quenching speed of the fluorescence which depends on the presence and activity of anionic channels. Under control conditions, the mutated CFTR protein presents a serious defect of stability and maturation, so it remains trapped in the endoplasmic reticulum not reaching the cell surface in enough quantity. In the HS-YFP-based assay, this defect results in a low anion transport capacity and therefore in a low quenching rate (QR). Treatment for a prolonged time (e.g. 24 hours) with a corrector determines an improvement in protein maturation with an increase in the number of CFTR channels present in the membrane and therefore an increase in the flux of iodide and QR. In a first phase, the authors screened about 200 heterocyclic molecules with various nitrogenated tricyclic scaffolds. Conditions previously described have been used for screening (Sondo E, et al. Am J Physiol. 2011, 301, […]-[…]) and reported herein in the Materials and Methods section. A threshold equal to the average value plus three times the standard deviation of the QR of wells without compounds (only DMSO in the culture medium) was used as a criterion for the selection of active compounds.
# Chain of F508del-CFTR (P13569 with tags, fused parts or gaps DEL508-508): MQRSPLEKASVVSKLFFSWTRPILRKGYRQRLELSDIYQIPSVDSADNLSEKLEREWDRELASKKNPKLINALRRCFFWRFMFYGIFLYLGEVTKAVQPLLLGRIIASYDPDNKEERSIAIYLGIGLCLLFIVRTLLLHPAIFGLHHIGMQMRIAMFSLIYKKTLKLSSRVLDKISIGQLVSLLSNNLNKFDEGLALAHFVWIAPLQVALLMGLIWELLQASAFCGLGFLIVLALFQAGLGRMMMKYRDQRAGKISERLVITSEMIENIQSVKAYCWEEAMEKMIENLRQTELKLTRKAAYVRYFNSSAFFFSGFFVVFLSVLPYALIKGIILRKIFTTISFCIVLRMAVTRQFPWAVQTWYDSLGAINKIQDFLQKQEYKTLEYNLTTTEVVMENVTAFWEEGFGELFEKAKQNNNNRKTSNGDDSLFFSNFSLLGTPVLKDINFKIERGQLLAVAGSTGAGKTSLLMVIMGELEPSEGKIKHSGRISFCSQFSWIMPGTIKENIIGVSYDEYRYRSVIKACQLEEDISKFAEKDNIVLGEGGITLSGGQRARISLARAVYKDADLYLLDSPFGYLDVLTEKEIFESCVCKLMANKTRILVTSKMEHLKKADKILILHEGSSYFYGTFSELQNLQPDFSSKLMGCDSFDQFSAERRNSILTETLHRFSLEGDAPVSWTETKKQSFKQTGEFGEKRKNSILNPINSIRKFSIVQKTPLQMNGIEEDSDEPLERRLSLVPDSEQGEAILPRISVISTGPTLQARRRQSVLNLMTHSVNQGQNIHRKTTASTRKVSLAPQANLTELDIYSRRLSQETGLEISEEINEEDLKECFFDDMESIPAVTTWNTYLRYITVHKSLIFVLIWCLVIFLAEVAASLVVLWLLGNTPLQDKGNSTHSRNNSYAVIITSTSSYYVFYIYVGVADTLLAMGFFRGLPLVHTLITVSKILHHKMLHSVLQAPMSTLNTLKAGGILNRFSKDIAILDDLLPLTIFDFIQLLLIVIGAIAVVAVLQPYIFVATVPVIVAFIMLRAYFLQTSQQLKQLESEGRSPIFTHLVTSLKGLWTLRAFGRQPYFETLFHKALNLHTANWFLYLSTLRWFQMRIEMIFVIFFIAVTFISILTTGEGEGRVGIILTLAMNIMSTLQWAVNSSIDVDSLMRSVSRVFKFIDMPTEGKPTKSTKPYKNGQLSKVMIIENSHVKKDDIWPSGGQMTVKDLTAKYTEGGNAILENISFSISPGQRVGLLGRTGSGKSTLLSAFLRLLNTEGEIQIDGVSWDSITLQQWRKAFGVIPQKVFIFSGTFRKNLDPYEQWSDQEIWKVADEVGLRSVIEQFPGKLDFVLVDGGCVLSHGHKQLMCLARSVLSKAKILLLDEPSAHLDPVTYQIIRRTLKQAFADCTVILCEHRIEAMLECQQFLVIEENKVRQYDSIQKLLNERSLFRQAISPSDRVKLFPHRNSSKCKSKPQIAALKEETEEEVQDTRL
row,SMILES,AI (%) additivity index [%]
1,"CCOC(=O)c1c(Br)c2c(n1Cc1ccc(C)cc1)-c1[nH]c(=O)c(S(C)(=O)=O)cc1CC2 [PP036, Ethyl 3-bromo-7-(metansulfonyl)-1-[(4-methylphenyl)methyl]-8-oxo-4,5,8,9-tetrahydro-1H-pyrrolo[3,2-h]quinoline-2-carboxylate]",23
2,"CCOC(=O)c1c(Br)c2c(n1Cc1ccc(C)c(C)c1)-c1[nH]c(=O)c(S(=O)(=O)c3ccccc3)cc1CC2 [PP037, Ethyl 7-(benzenesulfonyl)-3-bromo-1-[(3,4-dimethylphenyl)methyl]-8-oxo-4,5,8,9-tetrahydro-1H-pyrrolo[3,2-h]quinoline-2-carboxylate]",335
3,"CCOC(=O)c1cc2c(n1Cc1ccc(Br)cc1)-c1[nH]c(=O)c(S(=O)(=O)c3ccccc3)cc1CC2 [PP060, Ethyl 7-(benzenesulfonyl)-1-[(4-bromophenyl)methyl]-8-oxo-4,5,8,9-tetrahydro-1H-pyrrolo[3,2-h]quinoline-2-carboxylate]",148
4,"CCOC(=O)c1cc2c(n1Cc1ccc(I)cc1)-c1[nH]c(=O)c(S(=O)(=O)c3ccccc3)cc1CC2 [PP062, Ethyl 7-(benzenesulfonyl)-1-[(4-iodophenyl)methyl]-8-oxo-4,5,8,9-tetrahydro-1H-pyrrolo[3,2-h]quinoline-2-carboxylate]",95
5,"CCOC(=O)c1cc2c(n1CC1CC1)-c1[nH]c(=O)c(S(=O)(=O)c3ccccc3)cc1CC2 [PP064, Ethyl 7-(benzenesulfonyl)-1-(cyclopropylmethyl)-8-oxo-4,5,8,9-tetrahydro-1H-pyrrolo[3,2-h]quinoline-2-carboxylate]",235
6,"CCOC(=O)c1c(Br)c2c(n1CC1CC1)-c1[nH]c(=O)c(S(=O)(=O)c3ccccc3)cc1CC2 [PP065, Ethyl 7-(benzenesulfonyl)-3-bromo-1-(cyclopropylmethyl)-8-oxo-4,5,8,9-tetrahydro-1H-pyrrolo[3,2-h]quinoline-2-carboxylate]",284
7,"CCOC(=O)c1cc2c(n1Cc1ccc(C)nc1)-c1[nH]c(=O)c(S(=O)(=O)c3ccccc3)cc1CC2 [PP066, Ethyl 7-(benzenesulfonyl)-1-[(6-methylpyridin-3-yl)methyl]-8-oxo-4,5,8,9-tetrahydro-1H-pyrrolo[3,2-h]quinoline-2-carboxylate]",62
8,"CCOC(=O)c1c(Br)c2c(n1Cc1ccc(C)nc1)-c1[nH]c(=O)c(S(=O)(=O)c3ccccc3)cc1CC2 [PP067, Ethyl 7-(benzenesulfonyl)-3-bromo-1-[(6-methylpyridin-3-yl)methyl]-8-oxo-4,5,8,9-tetrahydro-1H-pyrrolo[3,2-h]quinoline-2-carboxylate]",81
9,"CCOC(=O)c1cc2c(n1Cc1c(C)cc(C)cc1C)-c1[nH]c(=O)c(S(=O)(=O)c3ccccc3)cc1CC2 [PP068, Ethyl 7-(benzenesulfonyl)-8-oxo-1-[(2,4,6-trimethylphenyl)methyl]-4,5,8,9-tetrahydro-1H-pyrrolo[3,2-h]quinoline-2-carboxylate]",116
10,"CCOC(=O)c1c(Br)c2c(n1Cc1c(C)cc(C)cc1C)-c1[nH]c(=O)c(S(=O)(=O)c3ccccc3)cc1CC2 [PP069, Ethyl 7-(benzenesulfonyl)-3-bromo-8-oxo-1-[(2,4,6-trimethylphenyl)methyl]-4,5,8,9-tetrahydro-1H-pyrrolo[3,2-h]quinoline-2-carboxylate]",175
11,"CCOC(=O)c1cc2c(n1Cc1ccc(C(F)(F)F)cc1)-c1[nH]c(=O)c(S(=O)(=O)c3ccccc3)cc1CC2 [PP070, Ethyl 7-(benzenesulfonyl)-8-oxo-1-{[4-(trifluoromethyl)phenyl]methyl}-4,5,8,9-tetrahydro-1H-pyrrolo[3,2-h]quinoline-2-carboxylate]",101
12,"CCOC(=O)c1cc2c(n1Cc1ccc(F)cc1)-c1[nH]c(=O)c(S(=O)(=O)c3ccccc3)cc1CC2 [PP072, Ethyl 7-(benzenesulfonyl)-1-[(4-fluorophenyl)methyl]-8-oxo-4,5,8,9-tetrahydro-1H-pyrrolo[3,2-h]quinoline-2-carboxylate]",420
13,"CCOC(=O)c1cc2c(n1CCCN(C)C)-c1[nH]c(=O)c(S(=O)(=O)c3ccccc3)cc1CC2 [PP075, Ethyl 7-(benzenesulfonyl)-1-[3-(dimethylamino)propyl]-8-oxo-4,5,8,9-tetrahydro-1H-pyrrolo[3,2-h]quinoline-2-carboxylate]",34
14,"Cc1ccc(Cn2c(C(=O)O)cc3c2-c2[nH]c(=O)c(S(=O)(=O)c4ccccc4)cc2CC3)cc1 [PP078, 7-(Benzenesulfonyl)-1-[(4-methylphenyl)methyl]-8-oxo-4,5,8,9-tetrahydro-1H-pyrrolo[3,2-h]quinoline-2-carboxylic acid]",37

# Other lines, results leading:
row,AI (%) additivity index [%],SMILES
1,146,"CCOC(=O)c1c(Br)c2c(n1Cc1ccc(I)cc1)-c1[nH]c(=O)c(S(=O)(=O)c3ccccc3)cc1CC2 [PP063, Ethyl 7-(benzenesulfonyl)-3-bromo-1-[(4-iodophenyl)methyl]-8-oxo-4,5,8,9-tetrahydro-1H-pyrrolo[3,2-h]quinoline-2-carboxylate]"
2,35,"CCOC(=O)c1c(Br)c2c(n1Cc1ccc(C(F)(F)F)cc1)-c1[nH]c(=O)c(S(=O)(=O)c3ccccc3)cc1CC2 [PP071, Ethyl 7-(benzenesulfonyl)-3-bromo-8-oxo-1-{[4-(trifluoromethyl)phenyl]methyl}-4,5,8,9-tetrahydro-1H-pyrrolo[3,2-h]quinoline-2-carboxylate]"
3,442,"CCOC(=O)c1c(Br)c2c(n1Cc1ccc(F)cc1)-c1[nH]c(=O)c(S(=O)(=O)c3ccccc3)cc1CC2 [PP073, Ethyl 7-(benzenesulfonyl)-3-bromo-1-[(4-fluorophenyl)methyl]-8-oxo-4,5,8,9-tetrahydro-1H-pyrrolo[3,2-h]quinoline-2-carboxylate]"
4,244,"CCOC(=O)c1c(Cl)c2c(n1Cc1ccc(C)cc1)-c1[nH]c(=O)c(S(=O)(=O)c3ccccc3)cc1CC2 [PP076, Ethyl 7-(benzenesulfonyl)-3-chloro-1-[(4-methylphenyl)methyl]-8-oxo-4,5,8,9-tetrahydro-1H-pyrrolo[3,2-h]quinoline-2-carboxylate]"
5,202,"CCOC(=O)c1c(I)c2c(n1Cc1ccc(C)cc1)-c1[nH]c(=O)c(S(=O)(=O)c3ccccc3)cc1CC2 [PP077, Ethyl 7-(benzenesulfonyl)-3-iodo-1-[(4-methylphenyl)methyl]-8-oxo-4,5,8,9-tetrahydro-1H-pyrrolo[3,2-h]quinoline-2-carboxylate]"
6,38,"Cc1ccc(Cn2c(C(=O)O)c(Br)c3c2-c2[nH]c(=O)c(S(=O)(=O)c4ccccc4)cc2CC3)cc1 [PP079, 7-(Benzenesulfonyl)-3-bromo-1-[(4-methylphenyl)methyl]-8-oxo-4,5,8,9-tetrahydro-1H-pyrrolo[3,2-h]quinoline-2-carboxylic acid]"

# Same assay, conditions: Table 2; compound at 10 μM plus VX-809; (QRTOT − QRVX)/QRVX
row,AI additivity index [%],SMILES
1,22,"CCOC(=O)c1cc2c(n1Cc1ccc(C)cc1)-c1[nH]c(=O)c(S(=O)(=O)c3ccccc3)cc1CCC2 [PP048, Ethyl 8-(benzenesulfonyl)-1-[(4-methylphenyl)methyl]-9-oxo-1,4,5,6,9,10-hexahydropyrrolo[3′,2′:6,7]cyclohepta[1,2-b]pyridine-2-carboxylate]"
2,60,"CCOC(=O)c1c(Br)c2c(n1Cc1ccc(C)cc1)-c1[nH]c(=O)c(S(=O)(=O)c3ccccc3)cc1CCC2 [PP056, Ethyl 8-(benzenesulfonyl)-3-bromo-1-[(4-methylphenyl)methyl]-9-oxo-1,4,5,6,9,10-hexahydropyrrolo[3′,2′:6,7]cyclohepta[1,2-b]pyridine-2-carboxylate]"

# Same assay, conditions: relative to the analogue
row,SMILES,structure-activity comparison of corrector potency/activity
1,"CCOC(=O)c1c(Br)c2c(n1Cc1ccc(C)c(C)c1)-c1[nH]c(=O)c(S(=O)(=O)c3ccccc3)cc1CC2 [PP037, Ethyl 7-(benzenesulfonyl)-3-bromo-1-[(3,4-dimethylphenyl)methyl]-8-oxo-4,5,8,9-tetrahydro-1H-pyrrolo[3,2-h]quinoline-2-carboxylate]",increase in potency compared to PP008
2,"CCOC(=O)c1c(Br)c2c(n1Cc1ccc(C)cc1)-c1[nH]c(=O)c(S(=O)(=O)c3ccccc3)cc1CCC2 [PP056, Ethyl 8-(benzenesulfonyl)-3-bromo-1-[(4-methylphenyl)methyl]-9-oxo-1,4,5,6,9,10-hexahydropyrrolo[3′,2′:6,7]cyclohepta[1,2-b]pyridine-2-carboxylate]",more potent than the non-halogenated analogues
